The subject of series [1] is Mus musculus. Kind of series: Antiatherosclerotic activity against high fat/high cholesterol fed LDLR-deficient mouse assessed as pltp gene regulation at 3 mg/kg administered with diet for 7 days by Experion chip analysis. It counts as functional, organism-based. Details: dose 3 mg/kg.
Series [2] concerns Mus musculus. The experiment in a line: Antiatherosclerotic activity against high fat/high cholesterol fed LDLR-deficient mouse assessed as IPl gene regulation at 3 mg/kg administered with diet for 7 days by Experion chip analysis. Details: dose 3 mg/kg. It counts as functional, organism-based.
Series [3] relates to Mus musculus. The experiment in a line: Antiatherosclerotic activity against high fat/high cholesterol fed LDLR-deficient mouse assessed as Lipc gene regulation at 0.6 mg/kg administered with diet for 7 days by Experion chip analysis. It counts as functional, organism-based. Details: dose 0.6 mg/kg.
The nature of series [4]: Plasma concentration in high fat/high cholesterol fed LDLR-deficient mouse administered with diet for 8 weeks measured after 3 hrs of last dose. To be noted: po. It counts as ADME, organism-based.
Series [5] has as its target T1, Oxysterols receptor LXR-alpha (Homo sapiens, UniProt Q13133).
The test system of series [6] is THP-1. Kind of series: Induction of [3H]cholesterol efflux in human THP1 cells.
The nature of series [7]: Plasma concentration in high fat/high cholesterol fed LDLR-deficient mouse at 0.6 mg/kg, qd administered with diet for 8 weeks measured after 3 hrs of last dose. Format: ADME, organism-based. On the set-up: dose 0.6 mg/kg. Conditions: po.
Series [8] has as its system THP-1. Kind of series: Induction of [3H]cholesterol efflux in human THP1 cells assessed as lipid accumulation relative to T0901317. Format: functional.
Series [9] deals with T1, Oxysterols receptor LXR-alpha. This is another data set of the same source.
Series [10] is described as follows: Half life in C57 mouse at 10 mg/kg, po. Format: ADME, organism-based. Details: dose 10 mg/kg, route oral. Conditions: in vivo.
Series [11] concerns the target T2, Peroxisome proliferator-activated receptor gamma (Homo sapiens) (UniProt P37231).
T2 sequence (whole entry): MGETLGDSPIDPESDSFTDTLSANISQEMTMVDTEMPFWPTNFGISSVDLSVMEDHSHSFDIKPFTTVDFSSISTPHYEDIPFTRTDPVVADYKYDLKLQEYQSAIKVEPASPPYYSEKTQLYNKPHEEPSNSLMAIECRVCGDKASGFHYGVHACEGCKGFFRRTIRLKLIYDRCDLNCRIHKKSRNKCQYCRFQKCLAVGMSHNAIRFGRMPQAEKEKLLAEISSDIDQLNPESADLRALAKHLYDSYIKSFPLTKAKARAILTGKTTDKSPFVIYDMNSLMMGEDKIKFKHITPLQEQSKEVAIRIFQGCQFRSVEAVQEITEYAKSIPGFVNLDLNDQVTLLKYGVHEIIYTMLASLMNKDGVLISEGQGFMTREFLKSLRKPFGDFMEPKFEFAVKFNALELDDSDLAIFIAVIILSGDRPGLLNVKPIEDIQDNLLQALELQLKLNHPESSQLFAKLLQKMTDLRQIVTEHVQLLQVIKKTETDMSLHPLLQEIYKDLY
Kind of series: Binding affinity to PPARgamma.

Series [12] deals with T3, Nuclear receptor subfamily 1 group I member 2 (Homo sapiens, UniProt O75469).
T3 sequence (O75469 whole entry): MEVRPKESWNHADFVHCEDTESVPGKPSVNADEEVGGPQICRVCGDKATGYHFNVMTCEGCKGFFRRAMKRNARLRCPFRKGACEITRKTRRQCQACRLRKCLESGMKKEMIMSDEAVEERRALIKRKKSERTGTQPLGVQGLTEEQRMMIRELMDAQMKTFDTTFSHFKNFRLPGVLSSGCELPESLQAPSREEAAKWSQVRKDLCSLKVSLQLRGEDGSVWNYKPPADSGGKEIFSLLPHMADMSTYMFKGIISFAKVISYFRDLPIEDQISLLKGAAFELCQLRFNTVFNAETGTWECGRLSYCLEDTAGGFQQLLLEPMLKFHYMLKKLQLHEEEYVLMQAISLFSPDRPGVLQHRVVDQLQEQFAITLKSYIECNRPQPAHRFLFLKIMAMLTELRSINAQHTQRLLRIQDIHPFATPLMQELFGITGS
The experiment in a line: Binding affinity to PXR.

For series [13], the target named is T4, Mineralocorticoid receptor (Homo sapiens) (UniProt P08235).
T4 sequence (whole entry): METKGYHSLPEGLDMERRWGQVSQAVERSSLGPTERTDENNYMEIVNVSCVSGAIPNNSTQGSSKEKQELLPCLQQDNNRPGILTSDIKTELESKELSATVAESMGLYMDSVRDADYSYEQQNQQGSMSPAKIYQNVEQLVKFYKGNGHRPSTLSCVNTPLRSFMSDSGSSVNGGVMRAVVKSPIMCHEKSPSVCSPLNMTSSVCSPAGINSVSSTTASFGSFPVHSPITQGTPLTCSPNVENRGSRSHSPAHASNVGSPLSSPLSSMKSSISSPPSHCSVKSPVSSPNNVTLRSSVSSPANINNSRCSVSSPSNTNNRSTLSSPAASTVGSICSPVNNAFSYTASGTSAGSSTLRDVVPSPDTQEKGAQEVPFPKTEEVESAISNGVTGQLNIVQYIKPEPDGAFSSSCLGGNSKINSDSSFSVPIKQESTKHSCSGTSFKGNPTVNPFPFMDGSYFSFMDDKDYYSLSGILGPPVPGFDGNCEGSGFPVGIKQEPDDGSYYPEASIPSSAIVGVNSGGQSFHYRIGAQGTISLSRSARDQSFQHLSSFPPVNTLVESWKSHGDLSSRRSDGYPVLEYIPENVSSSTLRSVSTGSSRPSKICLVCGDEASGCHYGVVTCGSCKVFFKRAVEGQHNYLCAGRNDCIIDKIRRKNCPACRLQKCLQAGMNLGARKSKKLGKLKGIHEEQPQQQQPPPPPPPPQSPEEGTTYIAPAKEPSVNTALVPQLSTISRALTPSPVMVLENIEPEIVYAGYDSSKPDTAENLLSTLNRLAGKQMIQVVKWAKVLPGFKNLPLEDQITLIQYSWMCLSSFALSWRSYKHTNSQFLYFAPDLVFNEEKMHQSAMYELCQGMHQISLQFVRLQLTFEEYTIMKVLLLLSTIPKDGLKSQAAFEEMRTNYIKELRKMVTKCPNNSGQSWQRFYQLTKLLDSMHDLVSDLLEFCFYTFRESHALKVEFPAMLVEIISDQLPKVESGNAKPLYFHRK
The experiment in a line: Binding affinity to mineralocorticoid receptor.

The nature of series [14]: Binding affinity to thyroid hormone receptor.
A short description of series [15]: Plasma concentration in high fat/high cholesterol fed LDLR-deficient mouse at 3 mg/kg, qd administered with diet for 8 weeks measured after 3 hrs of last dose. Format: ADME, organism-based. Details: dose 3 mg/kg. Conditions: po.

Molecules are shown by their SMILES. The source made the active and inactive calls. No cut-off for these calls is given here. Bounds are passed on as bounds.

T1 sequence (Q13133 whole entry, looked up): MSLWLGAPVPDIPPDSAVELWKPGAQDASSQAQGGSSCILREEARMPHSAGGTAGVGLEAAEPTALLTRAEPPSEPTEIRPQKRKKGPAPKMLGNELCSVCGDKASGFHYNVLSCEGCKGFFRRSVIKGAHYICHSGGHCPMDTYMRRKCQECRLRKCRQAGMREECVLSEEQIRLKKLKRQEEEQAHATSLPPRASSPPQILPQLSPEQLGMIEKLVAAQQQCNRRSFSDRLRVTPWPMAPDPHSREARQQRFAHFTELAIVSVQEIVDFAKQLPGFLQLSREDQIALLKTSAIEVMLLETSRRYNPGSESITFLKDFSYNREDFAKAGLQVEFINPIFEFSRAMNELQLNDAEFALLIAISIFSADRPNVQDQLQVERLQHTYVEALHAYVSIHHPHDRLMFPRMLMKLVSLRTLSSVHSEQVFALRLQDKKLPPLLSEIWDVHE

Turning to `O=C(O)Cc1cccc(OCCCN(Cc2cccc(C(F)(F)F)c2Cl)CC(c2ccccc2)c2ccccc2)c1`, the result in [1], in series [2] and in series [3] was Active. Moreover, in [4], the concentration at 3 h stood at 175 ng/mL.

As to `Cc1nc2c(C(F)(F)F)cccc2nc1-c1ccc(-c2cccc(S(C)(=O)=O)c2)cc1`, the EC50 (as a rule, the concentration that produces a half-maximal response) in series [5] was 1700 nM; in [9] it was over 1000 nM. Also, the Activity entry in series [6] was “Dose-dependent effect”; in [12], “Not Active”. Further, the figures for the concentration at 3 h in series [7] and in series [15] were 1020 ng/mL and 10800 ng/mL, respectively. Also, the Efficacy in [8] is reported as 60%. Besides, in [10], the half-life – broadly, how long it takes for the measured level to halve – was over 20 h. The result in series [11], in [13] and in series [14] was inactive.

The record behind these values is ChEMBL document CHEMBL1156230, “Identification of phenylsulfone-substituted quinoxaline (WYE-672) as a tissue selective liver X-receptor (LXR) agonist” (J Med Chem, 2010).
